Assay results: ChEMBL document CHEMBL1149998, “Tannins as selective inhibitors of protein kinase C” (Bioorg Med Chem Lett, 1992); call rule not given here

Tests used:
Protein kinase C (PKC) = test: Inhibitory activity against protein kinase C (PKC); type: protein assay, Homo sapiens
[1] = target: Protein kinase C, PKC; classical/novel (Homo sapiens) (UniProt O94806+P17252+P05129+Q05655+P05771+Q02156+P24723+Q15139+Q04759); test: Displacement of phorbol [3H]PDBu from protein kinase C; A - Did displace phorbol (PDBu) at 50 uM or less; type: protein assay
[2] = Inhibitory activity against c-AMP kinase; Did not inhibit c-AMP kinase

SMILES | IC50 (Protein kinase C (PKC)) [µM] | Phorbol displacement [1] [µM] | IC50 [2]
O=C(OC[C@H]1OC(O)[C@@](O)(COC(=O)c2cc(O)c(O)c(O)c2)[C@@H]1O)c1cc(O)c(O)c(O)c1 (some centres undefined) [HAMAMELITANNIN] | > 100 | – | –
Oc1cc(O)c2c(c1)O[C@H](c1ccc(O)c(O)c1)C(O)C2 (some centres undefined) | > 100 | – | –
O=C(O)C1=C[C@@H](O)[C@@H](O)[C@H](OC(=O)c2cc(O)c(O)c(OC(=O)c3cc(O)c(O)c(O)c3)c2)C1 | > 100 | – | –
O=C1O[C@H]2[C@H](O)[C@@H](OC(=O)c3cc(O)c(O)c4c3C3C1=CC(=O)C(O)(O)C3(O)O4)[C@@H](OC(=O)c1cc(O)c(O)c(O)c1)O[C@@H]2CO (some centres undefined) | 86 | – | –
C=C1O[C@H]2[C@@H]3OC(=O)c4cc(O)c(O)c(O)c4-c4c(cc(O)c(O)c4O)C(=O)OC[C@H]2O[C@@H](OC(=O)c2cc(O)c(O)c(O)c2)[C@@H]3OC(=O)c2cc(O)c(O)c3c2C2C(O)(O3)C3(O)OC4(C(=O)OC5C(O)COC54O)C12CC3=O (some centres undefined) | 17 | < 50 | Not Active
O=C(OC[C@H]1O[C@H](OC(=O)c2cc(O)c(O)c(O)c2)[C@H](O)[C@@H](O)[C@@H]1OC(=O)c1cc(O)c(O)c(O)c1)c1cc(O)c(O)c(O)c1 | > 100 | – | –
Oc1cc(O)c2c(c1)O[C@H](c1ccc(O)c(O)c1)C(O)[C@H]2c1c(O)cc(O)c2c1O[C@H](c1ccc(O)c(O)c1)C(O)C2 (some centres undefined) | > 100 | – | –
O=C(OC1Cc2c(O)cc(O)c([C@H]3c4c(O)cc(O)c([C@H]5c6c(O)cc(O)cc6O[C@H](c6ccc(O)c(O)c6)[C@@H]5OC(=O)c5cc(O)c(O)c(O)c5)c4O[C@H](c4ccc(O)c(O)c4)C3OC(=O)c3cc(O)c(O)c(O)c3)c2O[C@@H]1c1ccc(O)c(O)c1)c1cc(O)c(O)c(O)c1 (some centres undefined) | 2 | < 50 | Not Active
O=C(O)C1=C[C@@H](OC(=O)c2cc(O)c(O)c(O)c2)[C@@H](O)[C@H](OC(=O)c2cc(O)c(O)c(O)c2)C1 | > 100 | – | –
CC1(C)CC[C@]2(C(=O)O[C@@H]3O[C@H](CO)[C@@H](O)[C@H](O)[C@H]3O)CC[C@]3(C)C(=CC[C@@H]4[C@@]5(C)C[C@@H](O)[C@@H]6OC(=O)c7cc(O)c(O)c(O)c7-c7c(cc(O)c(O)c7O)C(=O)OC[C@@]6(CO)C5CC[C@]43C)C2C1 (some centres undefined) | 18 | < 50 | Not Active
O=C(O[C@@H]1O[C@@H]2COC(=O)c3cc(O)c(O)c(O)c3-c3c(cc(O)c(O)c3O)C(=O)O[C@H]([C@H]1OC(=O)c1cc(O)c(O)c(O)c1)[C@@H]2OC(=O)c1cc(O)c(O)c(O)c1)c1cc(O)c(O)c(O)c1 [PUNICAFOLIN] | 4 | < 50 | Not Active
O=C(O[C@@H]1[C@@H](c2c(O)cc(O)c3c2O[C@H](c2ccc(O)c(O)c2)[C@H](OC(=O)c2cc(O)c(O)c(O)c2)C3)c2c(O)cc(O)cc2O[C@@H]1c1ccc(O)c(O)c1)c1cc(O)c(O)c(O)c1 | 4 | < 50 | Not Active
CC1(C)CC[C@]2(C(=O)O)CC[C@]3(C)C(=CCC4[C@@]5(C)C[C@@H](O)[C@@H]6OC(=O)c7cc(O)c(O)c(O)c7-c7c(cc(O)c(O)c7O)C(=O)OC[C@@]6(CO)C5CC[C@]43C)C2C1 (some centres undefined) | 23 | < 50 | Not Active
O=C(O)C[C@@H]1C(=O)O[C@H]2[C@@H]3OC(=O)c4cc(O)c(O)c(O)c4-c4c(cc(O)c(O)c4O)C(=O)OC[C@H]2O[C@@H](OC(=O)c2cc(O)c(O)c(O)c2)[C@@H]3OC(=O)c2cc(O)c(O)c3c2[C@H]1[C@H](O)C(=O)O3 [CHEBULAGIC ACID] | 30 | – | –
O=C(O[C@@H]1C[C@](O)(C(=O)O)C[C@@H](OC(=O)c2cc(O)c(O)c(O)c2)[C@H]1OC(=O)c1cc(O)c(O)c(O)c1)c1cc(O)c(O)c(O)c1 | > 100 | – | –
Oc1cc(O)c2c(c1)O[C@H](c1ccc(O)c(O)c1)[C@H](O)[C@H]2c1c(O)cc(O)c2c1O[C@@]1(c3ccc(O)c(O)c3)Oc3cc(O)c4c(c3C2[C@H]1O)O[C@H](c1ccc(O)c(O)c1)[C@H](O)C4c1c(O)cc(O)c2c1O[C@H](c1ccc(O)c(O)c1)[C@H](O)C2 (some centres undefined) | 15 | < 50 | Not Active
O=C1OCC2OC(=O)c3cc(O)c(O)c(O)c3-c3c(O)c(O)c(O)c4c3C(=O)OC(C2OC(=O)c2cc(O)c(O)c(O)c2-c2c1cc(O)c(O)c2O)C1OC(=O)c2c-4c(O)c(O)c(O)c2[C@@H]1[C@@]1(O)O[C@@H](CO)[C@@H](O)[C@H]1O (some centres undefined) | 12 | < 50 | Not Active
O=C(O[C@@H]1O[C@@H]2COC(=O)c3cc(O)c(O)c(O)c3-c3c(cc(O)c(O)c3O)C(=O)O[C@H]([C@H]1O)[C@@H]2O)c1cc(O)c(O)c(O)c1 [CORILAGIN] | 20 | – | –
Oc1cc(O)c2c(c1)O[C@@]1(c3ccc(O)c(O)c3)Oc3cc(O)c4c(c3C2[C@H]1O)O[C@H](c1ccc(O)c(O)c1)[C@H](O)C4c1c(O)cc(O)c2c1O[C@H](c1ccc(O)c(O)c1)[C@H](O)C2 (some centres undefined) | 30 | < 50 | Not Active
O=C1O[C@H]2[C@@H]3OC(=O)c4cc(O)c(O)c(O)c4-c4c(cc(O)c(O)c4O)C(=O)OC[C@H]2O[C@H](OC(=O)c2cc(O)c(O)c(O)c2)[C@@H]3OC(=O)c2cc(O)c(O)c3c2C2C1=CC(=O)C(O)(O)C2(O)O3 (some centres undefined) | 11 | – | Not Active

SMILES | IC50 (Protein kinase C (PKC)) [µM] | Phorbol displacement [1] [µM] | IC50 [2]
O=C(O[C@H]1[C@H](O)C[C@](OC(=O)c2cc(O)c(O)c(O)c2)(C(=O)O)C[C@H]1OC(=O)c1cc(O)c(O)c(O)c1)c1cc(O)c(O)c(O)c1 | > 100 | < 50 | Not Active
O=C(OC[C@H]1O[C@@H](OC(=O)c2cc(O)c(O)c(O)c2)[C@H](OC(=O)c2cc(O)c(O)c(O)c2)[C@@H](O)[C@@H]1O)c1cc(O)c(O)c(O)c1 | > 100 | – | –
CC1O[C@H](O)C2OC(=O)c3cc(O)c(O)c(O)c3-c3c(cc(O)c(O)c3O)C(=O)OC2C1O (some centres undefined) | > 100 | – | –
Oc1cc(O)c2c(c1)O[C@H](c1ccc(O)c(O)c1)[C@H](O)[C@H]2c1c(O)cc(O)c2c1O[C@H](c1ccc(O)c(O)c1)[C@H](O)[C@H]2c1c(O)cc(O)c2c1O[C@H](c1ccc(O)c(O)c1)[C@H](O)C2 [PROCYANIDIN C1] | 40 | < 50 | Not Active
O=C(O[C@H]1[C@H](O)C[C@](OC(=O)c2cc(O)c(O)c(O)c2)(C(=O)O)C[C@H]1O)c1cc(O)c(O)c(O)c1 | > 100 | – | Not Active
O=C(O[C@@H]1O[C@H](CO)[C@@H](O)[C@H](O)[C@H]1O)c1cc(O)c(O)c(O)c1 | > 100 | – | –
O=C(O)C[C@@H]1C(=O)O[C@H]2[C@H](OC(=O)c3cc(O)c(O)c(O)c3)[C@@H](OC(=O)c3cc(O)c(O)c4c3[C@H]1[C@H](O)C(=O)O4)[C@@H](OC(=O)c1cc(O)c(O)c(O)c1)O[C@@H]2COC(=O)c1cc(O)c(O)c(O)c1 | 30 | – | –
O=C(OC[C@H]1O[C@H](O)[C@@](O)(COC(=O)c2cc(O)c(O)c(O)c2)[C@@H]1OC(=O)c1cc(O)c(O)c(O)c1)c1cc(O)c(O)c(O)c1 | > 100 | – | –
Oc1cc(O)c2c(c1)O[C@@]1(c3ccc(O)c(O)c3)Oc3cc(O)c4c(c3C2[C@H]1O)O[C@H](c1ccc(O)c(O)c1)[C@H](O)C4 | > 100 | – | –
O=C(O[C@@H]1C[C@](OC(=O)c2cc(O)c(O)c(O)c2)(C(=O)O)C[C@@H](OC(=O)c2cc(O)c(O)c(O)c2)[C@H]1OC(=O)c1cc(O)c(O)c(O)c1)c1cc(O)c(O)c(O)c1 | 64 | < 50 | Not Active
O=C(OC[C@H]1O[C@@H](OC(=O)c2cc(O)c(O)c(O)c2)[C@H](O)[C@@H](O)[C@@H]1O)c1cc(O)c(O)c(O)c1 | > 100 | – | –
O=C(O)C1=C[C@@H](O)[C@@H](O)[C@H](OC(=O)c2cc(O)c(O)c(O)c2)C1 | > 100 | – | –
O=C1OCC2OC(=O)c3cc(O)c(O)c(O)c3-c3c(O)c(O)c(O)c4c3C(=O)OC(C2OC(=O)c2cc(O)c(O)c(O)c2-c2c1cc(O)c(O)c2O)C1OC(=O)c2c-4c(O)c(O)c(O)c2[C@@H]1O (some centres undefined) | 4 | < 50 | Not Active
O=C1O[C@H]2[C@H](OC(=O)c3cc(O)c(O)c(O)c3)[C@@H](OC(=O)c3cc(O)c(O)c4c3C3C1=CC(=O)C(O)(O)C3(O)O4)[C@@H](OC(=O)c1cc(O)c(O)c(O)c1)O[C@@H]2COC(=O)c1cc(O)c(O)c(O)c1 (some centres undefined) | 16 | < 50 | Not Active
O=C(OC[C@H]1O[C@@H](O)[C@H](OC(=O)c2cc(O)c(O)c(O)c2)[C@@H](OC(=O)c2cc(O)c(O)c(O)c2)[C@@H]1OC(=O)c1cc(O)c(O)c(O)c1)c1cc(O)c(O)c(O)c1 | 82 | < 50 | Not Active
O=C(O[C@H]1[C@H](O)C[C@](O)(C(=O)O)C[C@H]1O)c1cc(O)c(O)c(O)c1 | > 100 | – | –
O=C(OC[C@H]1O[C@H](OC(=O)c2cc(O)c(O)c(O)c2)[C@H](OC(=O)c2cc(O)c(O)c(O)c2)[C@@H](OC(=O)c2cc(O)c(O)c(O)c2)[C@@H]1O)c1cc(O)c(O)c(O)c1 | 20 | < 50 | Not Active
O=C(OC[C@H]1O[C@@H](OC(=O)c2cc(O)c(O)c(O)c2)[C@H](OC(=O)c2cc(O)c(O)c(O)c2)[C@@H](OC(=O)c2cc(O)c(O)c(O)c2)[C@@H]1OC(=O)c1cc(O)c(O)c(O)c1)c1cc(O)c(O)c(O)c1 [PENTAGALLOYL GLUCOSE] | 4 | < 50 | –
O=C1OC2COC(=O)c3cc(O)c(O)c(O)c3-c3c(O)c(O)c4oc(=O)c5c(c(O)c(O)c6oc(=O)c3c4c65)-c3c(cc(O)c(O)c3O)C(=O)OC2C2OC(=O)c3c(c(O)c(O)c(O)c3-c3c(O)c(O)c(O)c4c3C(=O)OC2[C@@H]4O)-c2c1cc(O)c(O)c2O (some centres undefined) | 4 | – | –
